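Tested at 5 concentrations; 48 h exposure; 96-well plates; endpoints linearly interpolated, else capped at highest concentration. At the TGI there is no net growth.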
Experiments:
Assay in all cases: NCI tumour cell line growth inhibition, 48 h
RXF 393 renal = tested on: RXF 393 renal
NCI-H460 lung = tested on: NCI-H460 lung
U251 CNS = tested on: U251 CNS
HOP-62 NSCLC = tested on: HOP-62 NSCLC
BT-549 breast = tested on: BT-549 breast
HCC-2998 colon = tested on: HCC-2998 colon
786-0 renal = tested on: 786-0 renal
DU-145 prostate = tested on: DU-145 prostate
NCI/ADR-RES ovarian = tested on: NCI/ADR-RES ovarian
HCT-116 colon = tested on: HCT-116 colon
CCRF-CEM leukemia = tested on: CCRF-CEM leukemia
HCT-15 colon = tested on: HCT-15 colon
IGROV1 ovarian = tested on: IGROV1 ovarian
TK-10 renal = tested on: TK-10 renal
OVCAR-4 ovarian = tested on: OVCAR-4 ovarian
HS 578T breast = tested on: HS 578T breast
MDA-N = tested on: MDA-N
SNB-19 CNS = tested on: SNB-19 CNS
UO-31 renal = tested on: UO-31 renal
HOP-92 NSCLC = tested on: HOP-92 NSCLC
NCI-H226 lung = tested on: NCI-H226 lung
CAKI-1 renal = tested on: CAKI-1 renal
MCF7 breast = tested on: MCF7 breast
UACC-257 melanoma = tested on: UACC-257 melanoma
SF-539 CNS = tested on: SF-539 CNS
SN12C renal = tested on: SN12C renal
MALME-3M melanoma = tested on: MALME-3M melanoma
SW-620 colon = tested on: SW-620 colon
MDA-MB-231 breast = tested on: MDA-MB-231 breast
SK-OV-3 ovarian = tested on: SK-OV-3 ovarian
EKVX NSCLC = tested on: EKVX NSCLC
SR leukemia = tested on: SR leukemia
ACHN renal = tested on: ACHN renal
SK-MEL-28 melanoma = tested on: SK-MEL-28 melanoma
A549 NSCLC = tested on: A549 NSCLC
PC-3 prostate = tested on: PC-3 prostate
NCI-H522 lung = tested on: NCI-H522 lung
OVCAR-8 ovarian = tested on: OVCAR-8 ovarian
SK-MEL-2 melanoma = tested on: SK-MEL-2 melanoma
COLO 205 colon = tested on: COLO 205 colon
M14 melanoma = tested on: M14 melanoma
KM12 colon = tested on: KM12 colon
UACC-62 melanoma = tested on: UACC-62 melanoma
MDA-MB-435 = tested on: MDA-MB-435
SF-295 CNS = tested on: SF-295 CNS
K-562 leukemia = tested on: K-562 leukemia
MOLT-4 leukemia = tested on: MOLT-4 leukemia
SK-MEL-5 melanoma = tested on: SK-MEL-5 melanoma
NCI-H23 lung = tested on: NCI-H23 lung
SF-268 CNS = tested on: SF-268 CNS
T-47D breast = tested on: T-47D breast
HL-60(TB) leukemia = tested on: HL-60(TB) leukemia
OVCAR-3 ovarian = tested on: OVCAR-3 ovarian
SNB-75 CNS = tested on: SNB-75 CNS
A498 renal = tested on: A498 renal
OVCAR-5 ovarian = tested on: OVCAR-5 ovarian
RPMI-8226 leukemia = tested on: RPMI-8226 leukemia
LOX IMVI melanoma = tested on: LOX IMVI melanoma
HT29 colon = tested on: HT29 colon

With Cc1ccc(N=Nc2c(O)ccc3cc(S(=O)(=O)O)cc(S(=O)(=O)O)c23)cc1 the TGI (RXF 393 renal) was > 100 µM, the TGI (NCI-H460 lung) was > 100 µM and the TGI (U251 CNS) was > 100 µM. For the same compound, the TGI (HOP-62 NSCLC) was > 100 µM, the TGI (BT-549 breast) was > 100 µM and the TGI (HCC-2998 colon) was > 100 µM. For the same compound, the TGI (786-0 renal) was > 100 µM, the TGI (DU-145 prostate) was > 100 µM and the TGI (NCI/ADR-RES ovarian) was > 100 µM. The TGI (HCT-116 colon) was > 100 µM, the TGI (CCRF-CEM leukemia) was > 100 µM and the TGI (HCT-15 colon) was > 100 µM. For the same compound, the TGI (IGROV1 ovarian) was > 100 µM, the TGI (TK-10 renal) was > 100 µM and the TGI (OVCAR-4 ovarian) was > 100 µM. The TGI (HS 578T breast) was > 100 µM, the TGI (MDA-N) was > 100 µM and the TGI (SNB-19 CNS) was > 100 µM. The TGI (UO-31 renal) was > 100 µM, the TGI (HOP-92 NSCLC) was > 100 µM and the TGI (NCI-H226 lung) was > 100 µM. The TGI (CAKI-1 renal) was > 100 µM, the TGI (MCF7 breast) was > 100 µM and the TGI (UACC-257 melanoma) was > 100 µM. For the same compound, the TGI (SF-539 CNS) was > 100 µM, the TGI (SN12C renal) was > 100 µM and the TGI (MALME-3M melanoma) was > 100 µM. For the same compound, the TGI (SW-620 colon) was > 100 µM, the TGI (MDA-MB-231 breast) was > 100 µM and the TGI (SK-OV-3 ovarian) was > 100 µM. The TGI (EKVX NSCLC) was > 100 µM, the TGI (SR leukemia) was > 100 µM and the TGI (ACHN renal) was > 100 µM. The TGI (SK-MEL-28 melanoma) was > 100 µM, the TGI (A549 NSCLC) was > 100 µM and the TGI (PC-3 prostate) was > 100 µM. The TGI (NCI-H522 lung) was > 100 µM, the TGI (OVCAR-8 ovarian) was > 100 µM and the TGI (SK-MEL-2 melanoma) was > 100 µM. For the same compound, the TGI (COLO 205 colon) was > 100 µM, the TGI (M14 melanoma) was > 100 µM and the TGI (KM12 colon) was > 100 µM. The TGI (UACC-62 melanoma) was > 100 µM, the TGI (MDA-MB-435) was > 100 µM and the TGI (SF-295 CNS) was > 100 µM. The TGI (K-562 leukemia) was > 100 µM, the TGI (MOLT-4 leukemia) was > 100 µM and the TGI (SK-MEL-5 melanoma) was > 100 µM. For the same compound, the TGI (NCI-H23 lung) was > 100 µM, the TGI (SF-268 CNS) was > 100 µM and the TGI (T-47D breast) was > 100 µM. The TGI (HL-60(TB) leukemia) was > 100 µM, the TGI (OVCAR-3 ovarian) was > 100 µM and the TGI (SNB-75 CNS) was > 100 µM. The TGI (A498 renal) was > 100 µM and the TGI (OVCAR-5 ovarian) was > 100 µM.
O=Cc1ccc(OCc2cccc(COc3ccc(/C=N\Nc4ccc([N+](=O)[O-])cc4[N+](=O)[O-])cc3)n2)cc1 was tested, and the TGI (RXF 393 renal) was > 100 µM, the TGI (NCI-H460 lung) was > 100 µM and the TGI (U251 CNS) was > 100 µM. For the same compound, the TGI (HOP-62 NSCLC) was > 100 µM, the TGI (BT-549 breast) was > 100 µM and the TGI (HCC-2998 colon) was > 100 µM. For the same compound, the TGI (786-0 renal) was > 100 µM, the TGI (DU-145 prostate) was > 100 µM and the TGI (NCI/ADR-RES ovarian) was > 100 µM. For the same compound, the TGI (HCT-116 colon) was > 100 µM, the TGI (CCRF-CEM leukemia) was > 100 µM and the TGI (HCT-15 colon) was > 100 µM. The TGI (IGROV1 ovarian) was > 100 µM, the TGI (TK-10 renal) was > 100 µM and the TGI (OVCAR-4 ovarian) was > 100 µM. The TGI (HS 578T breast) was > 100 µM, the TGI (MDA-N) was > 100 µM and the TGI (SNB-19 CNS) was > 100 µM. For the same compound, the TGI (UO-31 renal) was > 100 µM, the TGI (RPMI-8226 leukemia) was > 100 µM and the TGI (LOX IMVI melanoma) was > 100 µM. The TGI (NCI-H226 lung) was > 100 µM, the TGI (CAKI-1 renal) was > 100 µM and the TGI (MCF7 breast) was > 100 µM. The TGI (UACC-257 melanoma) was > 100 µM, the TGI (SN12C renal) was > 100 µM and the TGI (MALME-3M melanoma) was > 100 µM. The TGI (SW-620 colon) was > 100 µM, the TGI (MDA-MB-231 breast) was > 100 µM and the TGI (EKVX NSCLC) was > 100 µM. The TGI (SR leukemia) was 75.3 µM, the TGI (ACHN renal) was > 100 µM and the TGI (SK-MEL-28 melanoma) was > 100 µM. The TGI (A549 NSCLC) was > 100 µM, the TGI (PC-3 prostate) was > 100 µM and the TGI (NCI-H522 lung) was > 100 µM. The TGI (HT29 colon) was > 100 µM, the TGI (OVCAR-8 ovarian) was > 100 µM and the TGI (SK-MEL-2 melanoma) was > 100 µM. The TGI (COLO 205 colon) was > 100 µM, the TGI (M14 melanoma) was > 100 µM and the TGI (KM12 colon) was > 100 µM. The TGI (UACC-62 melanoma) was > 100 µM, the TGI (MDA-MB-435) was > 100 µM and the TGI (SF-295 CNS) was > 100 µM. The TGI (K-562 leukemia) was > 100 µM, the TGI (MOLT-4 leukemia) was 80.2 µM and the TGI (SK-MEL-5 melanoma) was > 100 µM. For the same compound, the TGI (NCI-H23 lung) was > 100 µM, the TGI (SF-268 CNS) was > 100 µM and the TGI (T-47D breast) was > 100 µM. The TGI (HL-60(TB) leukemia) was > 100 µM, the TGI (OVCAR-3 ovarian) was > 100 µM and the TGI (A498 renal) was > 100 µM. For the same compound, the TGI (OVCAR-5 ovarian) was > 100 µM.

Reference: PubChem BioAssay (NCI)
